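96-well plates; 48 h exposure; 5 concentrations. Endpoints by linear interpolation between flanking doses. Not reached: highest tested concentration assigned. TGI marks complete inhibition of growth.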
Experiments:
Assay in all cases: inhibition of tumour cell growth, NCI panel, 48 h
786-0 renal = test system: 786-0 renal
A498 renal = test system: A498 renal
A549 NSCLC = test system: A549 NSCLC
ACHN renal = test system: ACHN renal
BT-549 breast = test system: BT-549 breast
CAKI-1 renal = test system: CAKI-1 renal
CCRF-CEM leukemia = test system: CCRF-CEM leukemia
COLO 205 colon = test system: COLO 205 colon
DU-145 prostate = test system: DU-145 prostate
EKVX NSCLC = test system: EKVX NSCLC
HCC-2998 colon = test system: HCC-2998 colon
HCT-116 colon = test system: HCT-116 colon
HCT-15 colon = test system: HCT-15 colon
HL-60(TB) leukemia = test system: HL-60(TB) leukemia
HOP-62 NSCLC = test system: HOP-62 NSCLC
HS 578T breast = test system: HS 578T breast
HT29 colon = test system: HT29 colon
IGROV1 ovarian = test system: IGROV1 ovarian
K-562 leukemia = test system: K-562 leukemia
KM12 colon = test system: KM12 colon
LOX IMVI melanoma = test system: LOX IMVI melanoma
M14 melanoma = test system: M14 melanoma
MALME-3M melanoma = test system: MALME-3M melanoma
MCF7 breast = test system: MCF7 breast
MDA-MB-231 breast = test system: MDA-MB-231 breast
MDA-MB-435 = test system: MDA-MB-435
MDA-N = test system: MDA-N
MOLT-4 leukemia = test system: MOLT-4 leukemia
NCI-H226 lung = test system: NCI-H226 lung
NCI-H23 lung = test system: NCI-H23 lung
NCI-H460 lung = test system: NCI-H460 lung
NCI-H522 lung = test system: NCI-H522 lung
NCI/ADR-RES ovarian = test system: NCI/ADR-RES ovarian
OVCAR-3 ovarian = test system: OVCAR-3 ovarian
OVCAR-4 ovarian = test system: OVCAR-4 ovarian
OVCAR-5 ovarian = test system: OVCAR-5 ovarian
OVCAR-8 ovarian = test system: OVCAR-8 ovarian
PC-3 prostate = test system: PC-3 prostate
RPMI-8226 leukemia = test system: RPMI-8226 leukemia
SF-268 CNS = test system: SF-268 CNS
SF-295 CNS = test system: SF-295 CNS
SF-539 CNS = test system: SF-539 CNS
SK-MEL-2 melanoma = test system: SK-MEL-2 melanoma
SK-MEL-28 melanoma = test system: SK-MEL-28 melanoma
SK-MEL-5 melanoma = test system: SK-MEL-5 melanoma
SK-OV-3 ovarian = test system: SK-OV-3 ovarian
SN12C renal = test system: SN12C renal
SNB-19 CNS = test system: SNB-19 CNS
SNB-75 CNS = test system: SNB-75 CNS
SR leukemia = test system: SR leukemia
SW-620 colon = test system: SW-620 colon
T-47D breast = test system: T-47D breast
TK-10 renal = test system: TK-10 renal
U251 CNS = test system: U251 CNS
UACC-257 melanoma = test system: UACC-257 melanoma
UACC-62 melanoma = test system: UACC-62 melanoma
UO-31 renal = test system: UO-31 renal

`CCOC(=O)C1(Cc2ccc3c(c2)CCC3)Cc2cc3c(cc2C1=O)CCC3` (configuration not stated) was tested, and the TGI (786-0 renal) was > 100 µM, the TGI (A498 renal) was > 78.7 µM and the TGI (A549 NSCLC) was > 100 µM. The TGI (ACHN renal) was > 100 µM, the TGI (BT-549 breast) was > 100 µM and the TGI (CAKI-1 renal) was > 100 µM. For the same compound, the TGI (CCRF-CEM leukemia) was > 100 µM, the TGI (COLO 205 colon) was > 100 µM and the TGI (DU-145 prostate) was > 100 µM. For the same compound, the TGI (EKVX NSCLC) was > 100 µM, the TGI (HCC-2998 colon) was > 100 µM and the TGI (HCT-116 colon) was > 100 µM. For the same compound, the TGI (HCT-15 colon) was > 100 µM, the TGI (HL-60(TB) leukemia) was 7.07 µM and the TGI (HOP-62 NSCLC) was > 100 µM. The TGI (HS 578T breast) was > 100 µM, the TGI (HT29 colon) was > 100 µM and the TGI (IGROV1 ovarian) was > 100 µM. For the same compound, the TGI (K-562 leukemia) was > 100 µM, the TGI (KM12 colon) was > 100 µM and the TGI (LOX IMVI melanoma) was > 100 µM. For the same compound, the TGI (M14 melanoma) was > 100 µM, the TGI (MALME-3M melanoma) was > 100 µM and the TGI (MCF7 breast) was > 100 µM. For the same compound, the TGI (MDA-MB-231 breast) was > 100 µM, the TGI (MDA-MB-435) was > 100 µM and the TGI (MDA-N) was > 100 µM. The TGI (MOLT-4 leukemia) was > 100 µM, the TGI (NCI-H226 lung) was > 100 µM and the TGI (NCI-H23 lung) was > 100 µM. The TGI (NCI-H460 lung) was > 100 µM, the TGI (NCI-H522 lung) was > 100 µM and the TGI (NCI/ADR-RES ovarian) was > 100 µM. For the same compound, the TGI (OVCAR-3 ovarian) was > 100 µM, the TGI (OVCAR-4 ovarian) was > 100 µM and the TGI (OVCAR-5 ovarian) was > 100 µM. The TGI (OVCAR-8 ovarian) was > 100 µM, the TGI (PC-3 prostate) was > 100 µM and the TGI (RPMI-8226 leukemia) was > 100 µM. For the same compound, the TGI (SF-268 CNS) was > 100 µM, the TGI (SF-295 CNS) was > 100 µM and the TGI (SF-539 CNS) was > 100 µM. For the same compound, the TGI (SK-MEL-2 melanoma) was > 100 µM, the TGI (SK-MEL-28 melanoma) was > 100 µM and the TGI (SK-MEL-5 melanoma) was > 100 µM. The TGI (SK-OV-3 ovarian) was > 100 µM, the TGI (SN12C renal) was > 100 µM and the TGI (SNB-19 CNS) was > 100 µM. For the same compound, the TGI (SNB-75 CNS) was > 100 µM, the TGI (SR leukemia) was > 100 µM and the TGI (SW-620 colon) was > 100 µM. For the same compound, the TGI (T-47D breast) was > 100 µM, the TGI (TK-10 renal) was > 100 µM and the TGI (U251 CNS) was > 100 µM. The TGI (UACC-257 melanoma) was > 100 µM, the TGI (UACC-62 melanoma) was > 100 µM and the TGI (UO-31 renal) was > 100 µM.

For `c1ccc(NNC2=NCCN2)cc1`, the TGI (786-0 renal) was > 100 µM, the TGI (A498 renal) was > 100 µM and the TGI (A549 NSCLC) was > 100 µM. For the same compound, the TGI (ACHN renal) was > 100 µM, the TGI (BT-549 breast) was > 100 µM and the TGI (CAKI-1 renal) was > 100 µM. The TGI (CCRF-CEM leukemia) was > 100 µM, the TGI (COLO 205 colon) was > 100 µM and the TGI (DU-145 prostate) was > 100 µM. The TGI (EKVX NSCLC) was > 100 µM, the TGI (HCT-116 colon) was > 100 µM and the TGI (HCT-15 colon) was > 100 µM. For the same compound, the TGI (HL-60(TB) leukemia) was > 100 µM, the TGI (HOP-62 NSCLC) was > 100 µM and the TGI (HS 578T breast) was > 100 µM. The TGI (HT29 colon) was > 100 µM, the TGI (IGROV1 ovarian) was > 100 µM and the TGI (K-562 leukemia) was > 100 µM. For the same compound, the TGI (KM12 colon) was > 100 µM, the TGI (LOX IMVI melanoma) was > 100 µM and the TGI (M14 melanoma) was > 100 µM. For the same compound, the TGI (MCF7 breast) was > 100 µM, the TGI (MDA-MB-231 breast) was > 100 µM and the TGI (MDA-MB-435) was > 100 µM. For the same compound, the TGI (MDA-N) was > 100 µM, the TGI (MOLT-4 leukemia) was > 100 µM and the TGI (NCI-H226 lung) was > 100 µM. The TGI (NCI-H23 lung) was > 100 µM, the TGI (NCI-H460 lung) was > 100 µM and the TGI (NCI-H522 lung) was > 100 µM. The TGI (NCI/ADR-RES ovarian) was > 100 µM, the TGI (OVCAR-3 ovarian) was > 100 µM and the TGI (OVCAR-4 ovarian) was > 100 µM. For the same compound, the TGI (OVCAR-5 ovarian) was > 100 µM, the TGI (OVCAR-8 ovarian) was > 100 µM and the TGI (PC-3 prostate) was > 100 µM. For the same compound, the TGI (RPMI-8226 leukemia) was > 100 µM, the TGI (SF-268 CNS) was > 100 µM and the TGI (SF-295 CNS) was > 100 µM. The TGI (SF-539 CNS) was > 100 µM, the TGI (SK-MEL-2 melanoma) was > 100 µM and the TGI (SK-MEL-28 melanoma) was > 100 µM. The TGI (SK-MEL-5 melanoma) was > 100 µM, the TGI (SK-OV-3 ovarian) was > 100 µM and the TGI (SN12C renal) was > 100 µM. The TGI (SNB-19 CNS) was > 100 µM, the TGI (SNB-75 CNS) was > 100 µM and the TGI (SR leukemia) was > 100 µM. For the same compound, the TGI (SW-620 colon) was > 100 µM, the TGI (T-47D breast) was > 100 µM and the TGI (TK-10 renal) was > 100 µM. For the same compound, the TGI (U251 CNS) was > 100 µM, the TGI (UACC-257 melanoma) was > 100 µM and the TGI (UACC-62 melanoma) was > 100 µM. The TGI (UO-31 renal) was > 100 µM.

From PubChem BioAssay (NCI)
